Tests used:
[1] = system: prostate cancer, human melanoma, breast cancer and others; test: Anticancer screen, in vitro cell proliferation assay (MTT); type: cell-based
Excerpt: The extracts obtained as described above were fractionated by absorbing onto celite and then extracting with increasing polarities of ethyl acetate in hexane. Each fraction obtained was evaporated in-vacuo to remove the solvent and monitored by thin layer chromatography (TLC). […] The dried residue of each fraction was used in the anticancer assay to determine effect on cell proliferation. The active fraction was subjected to dry column chromatography (DCC) using normal phase silica gel activated for visualization with UV 254. This procedure led to the isolation of compounds of Formula I in pure form. The Compound A (Kuminol) and the other fractions obtained were further subjected to anticancer activity screening.
Further purification of second active fraction by use of Waters Sep Pak flash chromatography yielded compounds of the Formula II. Compound B (Vernoginin) inhibited prostate cancer, human melanoma, breast cancer and others in the in vitro cell proliferation assay.
The anticancer screen is based on the highly sensitive 3-(4,5-dimethylthiazol-2-yl)-2, S-diphenyl tetrazolium bromide (MTT) assay. […]
The anticancer activity of the extract obtained as described above was confirmed using the highly proliferative B16 cell line. […] Each of the fractions obtained was evaporated in-vacuo to remove the solvent and monitored by thin layer chromatography (TLC). […]

[2] = system: melanoma cancer cell line A375; test: Cell proliferation assay (WST-1, 72 h); type: cell-based; conditions: A-375, Human melanoma A375, average of two runs
Description: (§1) Breast cancer cells lines MDA-MD-231 and MCF-7, colon cancer cell line HCT-116, Leukaemia cell line HL-60, lung cancer cell line A549, melanoma cancer cell line A375, ovarian cancer cell line OVCAR3 and prostate cancer cell line PC-3 were treated with Compound A (Kuminol) and Compound B (Vernoginin) to determine the effects of the molecules on the proliferation of each cell line.
(§2) Established protocol was used to assay the anti-proliferation effects of these compounds against selected cancer cell lines. Each cell line is grown in RPMI/10% FBS/1% glutamine. On the day the experiment is initiated, cells are trypsinized and plated into 96 well plates in 50 ul of media. Compound is added approximately 18 hours after plating. Cells are plated at a density so that 72 hours post drug addition, the cells are in log phase (500-2000 cells/well). The compounds are solubilized in DMSO at a concentration of 100 mM, aliquoted and stored at −20^C. On the day of drug addition, the compounds are removed from the freezer and serially diluted in DMSO to concentrations as low as 100 nM. The compounds are then diluted 1:1000 into growth media (this is 2× the final concentration) including a DMSO alone control. 50 ul of media/compound is added to each well. The cells are allowed to proliferate for 72 hours. The experiment is terminated using WST-1 (Roche) and absorbance is read at 450 nm/690 nm IC50s are calculated in GraphPad Prism converting all values to percentage of control cell growth. Each cell line is run in duplicate and the average of the two runs is the calculated IC50 of each compound.

[3] = system: Breast cancer cell line MCF-7; test: Cell proliferation assay (WST-1, 72 h); type: cell-based; conditions: Homo sapiens, MCF7, Breast MCF-7, average of two runs
Description: as §1, §2

[4] = system: colon cancer cell line HCT-116; test: Cell proliferation assay (WST-1, 72 h); type: cell-based; conditions: Homo sapiens, Colon HCT-116, average of two runs
Description: as §1, §2

[5] = system: prostate cancer cell line PC-3; test: Cell proliferation assay (WST-1, 72 h); type: cell-based; conditions: Prostate PC-3, average of two runs
Description: as §1, §2

[6] = system: Leukaemia cell line HL-60; test: Cell proliferation assay (WST-1, 72 h); type: cell-based; conditions: Homo sapiens, Leukaemia HL-60, average of two runs
Description: as §1, §2

[7] = system: lung cancer cell line A549; test: Cell proliferation assay (WST-1, 72 h); type: cell-based; conditions: Homo sapiens, average of two runs
Description: as §1, §2

[8] = system: ovarian cancer cell line OVCAR3; test: Cell proliferation assay (WST-1, 72 h); type: cell-based; conditions: Homo sapiens, OVCAR-3, average of two runs
Description: as §1, §2

[9] = system: Breast cancer cell line MDA-MB-231; test: Cell proliferation assay (WST-1, 72 h); type: cell-based; conditions: Homo sapiens, Breast MDA-MB-231, average of two runs
Description: as §1, §2

[10] = system: human leukaemia cell line HL-60; test: Apoptosis determination (Annexin V and propidium iodide, flow cytometry); type: cell-based; conditions: 1x, 10x and 50x IC50, 0-24 h
Description: The apoptotic effects of Kuminol (Compound A) and Vernoginin (Compound B) against the human leukaemia cell line HL-60 was determined. Annexin V and Propidium Iodide assay were carried out to determine whether Kuminol and Vernoginin have effect on cell cycle and induction of apoptosis in cancer cells. Cell death can result from either necrosis or apoptosis (programmed cell death).
The human leukaemia cell line HL60 were plated in RPMI1640 at 4×10^6 (2×10^5 cells/ml) and treated with 1×IC50, 10×IC50 and 50×IC50 Kuminol and Vernoginin. For cell cycle, 2 ml of the treated cells were stained with propidium iodide as per the manufactures instruction, aliquots (2 ml) of cells were removed and fixed at 3, 6, 24, 48 and 72 hours. For apoptosis, 2 ml aliquots of cells were removed at 0, 3, 6 and 24 hours and were stained with Annexin V FITC as per the manufacturer's instructions. The presence of apoptosis and cell cycle changes were detected using a Cytomics 500 Beckman Coulter Flow Cytometer (Coulter, Inc. Hialeah, Fla., USA

B16 tumors = test: In vivo antitumor activity; conditions: B16 tumors in C57 mice; FIG. 5

IC50 [2] | IC50 [3] | IC50 [4] | IC50 [5] | IC50 [6] | IC50 [7] | IC50 [8] | IC50 [9] | Compound | growth inhibition in anticancer assay (in words) [1] | induction of apoptosis (in words) [10] | suppression of tumors (in words) (B16 tumors)
350 ± 40 nM | 670 ± 320 nM | 450 ± 7 nM | 1000 ± 260 nM | 1550 ± 470 nM | 2040 ± 1040 nM | 740 ± 310 nM | 1010 ± 200 nM | C=C1COC(O)/C(C(O/C=C(\C)C=O)C(=C)C(=O)O)=C\CCCC(O)C1=O (centres unmarked) [Kuminol, 2-[(2,8-Dihydroxy-10-methylene-9-oxo-oxacycloundec-3-en-3-yl)-(2-methyl-3-oxo-propenyloxy)-methyl]-acrylic acid] | exhibited growth inhibition | induce apoptosis | suppression effects
130 ± 150 nM | 1560 ± 960 nM | 140 ± 150 nM |  | 1120 ± 750 nM | 1130 ± 380 nM | 480 ± 8 nM | 367 ± 30 nM | C=CC(C)(CC(O)C(O)C(=C)C=O)C(O)C(C(=C)C(C)=O)C(=C)C(=O)CCO (centres unmarked) [Vernoginin, 3,4,7,12,-Tetrahydroxy-6-methyl-2,9-dimethylene-8-(1-methylene-2-oxo-propyl)-10-oxo-6-vinyl-dodecanal] | inhibited | induce apoptosis | 
